Tests used:
Experiment in all cases: relative viability (nuclei count vs DMSO), 5 days (fraction); higher = more cells survive
[1] = compound: COc1cc2nccc(Oc3ccc(NC(=O)C4(C(=O)Nc5ccc(F)cc5)CC4)cc3)c2cc1OC [Cabozantinib] + CC(=O)c1c(C)c2cnc(Nc3ccc(N4CCNCC4)cn3)nc2n(C2CCCC2)c1=O [Palbociclib] (partner 0.5 µM)
Procedure, shortened: (§1)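 Medians of duplicate plates are given as relative viability. That measure is the nuclei count in treated wells divided by the count in vehicle wells. Counts were taken on 4× images of lung cancer cell lines in 1536-well plates, 5 days after pin-tool dosing the day after seeding with one drug alone or a fixed anchor-drug dose plus five library-drug doses (not always all listed) in √10 steps.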

[2] = compound: COc1cc2nccc(Oc3ccc(NC(=O)C4(C(=O)Nc5ccc(F)cc5)CC4)cc3)c2cc1OC [Cabozantinib] + C[C@]1(O)C[C@@H](c2nc(-c3ccc4ccc(-c5ccccc5)nc4c3)c3c(N)nccn32)C1 [Linsitinib] (partner 1 µM)
Procedure, shortened: as §1

[3] = compound: COc1cc2nccc(Oc3ccc(NC(=O)C4(C(=O)Nc5ccc(F)cc5)CC4)cc3)c2cc1OC [Cabozantinib] + O=C(CCCCCCC(=O)Nc1ccccc1)NO [Vorinostat] (partner 1 µM)
Procedure, shortened: as §1

Zosuquidar + Linsitinib = compound: O[C@@H](COc1cccc2ncccc12)CN1CCN([C@@H]2c3ccccc3[C@@H]3[C@H](c4ccccc42)C3(F)F)CC1 [Zosuquidar] + C[C@]1(O)C[C@@H](c2nc(-c3ccc4ccc(-c5ccccc5)nc4c3)c3c(N)nccn32)C1 [Linsitinib] (partner 1 µM)
Procedure, shortened: as §1

Cell Line	relative viability ([1]; first compound 0.02 µM)	relative viability ([1]; first compound 0.06325 µM)	relative viability ([1]; first compound 0.2 µM)	relative viability ([1]; first compound 0.6325 µM)	relative viability ([1]; first compound 2 µM)	relative viability ([2]; first compound 0.02 µM)	relative viability ([2]; first compound 0.06325 µM)	relative viability ([2]; first compound 0.2 µM)	relative viability ([2]; first compound 0.6325 µM)	relative viability ([2]; first compound 2 µM)	relative viability ([3]; first compound 0.02 µM)	relative viability ([3]; first compound 0.06325 µM)	relative viability ([3]; first compound 0.2 µM)	relative viability ([3]; first compound 0.6325 µM)	relative viability ([3]; first compound 2 µM)	relative viability (Zosuquidar + Linsitinib; first compound 0.01 µM)	relative viability (Zosuquidar + Linsitinib; first compound 0.03162 µM)	relative viability (Zosuquidar + Linsitinib; first compound 0.1 µM)	relative viability (Zosuquidar + Linsitinib; first compound 0.3162 µM)	relative viability (Zosuquidar + Linsitinib; first compound 1 µM)
NCI-H358	0.112	0.138	0.163	0.135	0.135	0.833	0.868	0.851	0.735	0.736	0.683	0.905	0.556	0.623	0.534	0.768	0.726	0.715	0.735	0.75
NCI-H1395	0.631	0.79	0.626	0.642	0.54	1.25	1.27	1	1.13	0.958	0.623	0.831	0.703	0.685	0.656	1.39	1.17	0.796	1.04	1.1
HCC-15	0.824	0.797	0.716	0.718	0.672	1	0.958	0.846	0.843	0.736	0.913	0.893	0.861	0.799	0.824	0.949	0.794	0.913	0.901	0.901
PC-3 [JPC-3]	0.574	0.559		0.514	0.636	0.971	0.993		1	0.902	0.694	1.1		0.816	1.02	0.945	0.956	0.817	0.929	0.981
HOP-62	0.503	0.488	0.416	0.506	0.491	1.09	0.974	1.1	1.01	1.02	0.661	0.764	0.669	0.603	0.555	0.834	1.12	1.13	0.886	0.991
NCI-H460	0.168	0.243	0.245	0.187	0.165	0.941	0.89	0.83	0.805	0.797	0.893	0.818	0.68	0.635	0.741	0.764	0.802	0.711	0.759	0.768
NCI-H1793	0.338	0.313		0.277	0.252	1.21	1.01	0.7	0.814	0.65	0.652	1.12		0.744	0.759	0.748	0.934		0.797	0.73
NCI-H727	0.648	0.689	0.577	0.62	0.616	0.323	0.231	0.282	0.22	0.309	0.935	1.36	1.23	1.28	1.22	0.328	0.343	0.335	0.237	0.274

Source: the supplement of paper PMC10307832
